Data published in patent US20230122991A1, “GROWTH FACTOR FORMULATION FOR CONDITION ASSOCIATED WITH OTIC EVENT” (OTONOMY, INC., priority 2020, published 2023).

Legend:
[1] = system: Spiral ganglion neurons (SGNs); experiment: Survival of spiral ganglion neurons (Example C); assay type: cell-based, rat; settings: 1 μM; compared to a vehicle-only control, 0.01% DMSO; FIG. 6C
Description: Spiral ganglion neurons (SGNs) were harvested from P1-P3 rates, dissociated, and cultured in 96-well plates. The SGNs were treated with neurotrophins and/or antibodies at various concentrations. After about 24 hours, media was exchanged to serum-free media and the neurotrophins and/or antibodies were replenished. Cells were cultured for an additional 48-72 hours before being fixed using 4% paraformaldehyde (PFA) and stained using 4′,6-diamidino-2-phenylindole (DAPI). […] Surviving neurons were identified as cells with intact soma and at least one neurite.

SGNs = experiment: SGN complexity, dissociated SGNs (Example D); assay type: cell-based, rat; settings: differences upon treatment, FIG. 7D
Text: SGNs were immunostained, imaged, and batch analyzed with PerkinElmer Harmony 4.6 software. Changes in the complexities of SGNs upon treatment with various agents were examined. […] All of the images in a single well were stitched together and analyzed. SGN somas are shown in the upper right panel and SGN neurites are shown in the lower left panel. As shown in the lower right panel, each neurite tree is assigned to a single cell for analysis. Depending on the stitching, occasionally neurites will not meet the criteria due to gaps that exceed a user-defined threshold.

Molecule: OCCN(CCO)c1ccc(C(c2ccc(Cl)cc2)c2ccc(N(CCO)CCO)cc2)cc1 [LM22b10]
- Survival of SGNs [1]: not improved

B1: neurotrophin-3 (protein, UniProt P20783 139-257, looked up)
Neurotrophin-3: YAEHKSHRGEYSVCDSESLWVTDKSSAIDIRGHQVTVLGEIKTGNSPVKQYFYETRCKEARPVKNGCRGIDDKHWNSQCKTSQTYVRALTSENNKLVGWRWIRIDTSCVCALSRKIGRT
modifications: Neurotrophin-3
- total neurite length, total number of extremities, segments, and nodes per cell (SGNs): not statistically significant
